Measurements from PMC10988834, “Neq2X7: a multi-purpose and open-source fusion DNA polymerase for advanced DNA engineering and diagnostics PCR” (BMC Biotechnology, 2024).

Target: T1, Neq2X (Nanoarchaeum equitans, UniProt Q74M37+Q74N74, Q74N74:A523R/Q74N74:N540R)
T1 construct: gene NEQ068; double mutant Neq DNA polymerase without Sso7d, N-terminal 6xHis; one polypeptide, E. coli Rosetta2 (DE3) pLysS
Assay: PCR amplification, agarose gel
Assay type: biochemical
Details: with dATP, dCTP, dGTP, 1 min/kb, extension 72 °C

T1 sequence (Q74M37 entry or part of it): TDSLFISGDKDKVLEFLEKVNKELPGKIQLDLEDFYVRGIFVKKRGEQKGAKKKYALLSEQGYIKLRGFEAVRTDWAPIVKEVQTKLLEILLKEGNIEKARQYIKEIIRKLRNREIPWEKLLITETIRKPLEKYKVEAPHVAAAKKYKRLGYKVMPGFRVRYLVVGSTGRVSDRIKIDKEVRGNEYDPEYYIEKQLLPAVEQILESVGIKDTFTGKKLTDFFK
T1 sequence (Q74N74 entry or part of it A523R/N540R): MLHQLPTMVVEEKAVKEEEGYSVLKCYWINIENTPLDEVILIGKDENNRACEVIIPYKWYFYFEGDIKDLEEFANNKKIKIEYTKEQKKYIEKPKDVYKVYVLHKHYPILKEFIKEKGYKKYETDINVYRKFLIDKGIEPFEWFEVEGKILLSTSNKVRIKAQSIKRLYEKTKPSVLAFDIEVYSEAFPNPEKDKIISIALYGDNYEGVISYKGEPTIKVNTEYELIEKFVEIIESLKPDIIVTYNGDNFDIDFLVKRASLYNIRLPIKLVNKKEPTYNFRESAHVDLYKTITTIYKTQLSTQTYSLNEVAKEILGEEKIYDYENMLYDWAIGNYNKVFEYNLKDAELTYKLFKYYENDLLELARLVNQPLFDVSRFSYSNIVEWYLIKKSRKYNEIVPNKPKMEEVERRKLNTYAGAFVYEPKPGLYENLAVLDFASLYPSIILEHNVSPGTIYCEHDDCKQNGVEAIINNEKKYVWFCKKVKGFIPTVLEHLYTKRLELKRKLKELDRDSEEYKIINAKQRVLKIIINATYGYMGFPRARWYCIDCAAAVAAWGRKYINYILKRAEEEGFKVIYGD

| SMILES | PCR amplification, agarose gel (3-12 kb amplicons) | PCR amplification, agarose gel (dUTP fully replacing dTTP, 3 kb amplicon) |
| --- | --- | --- |
| Cc1cn([C@H]2C[C@H](O)[C@@H](COP(=O)(O)OP(=O)(O)OP(=O)(O)O)O2)c(=O)[nH]c1=O [dTTP] | all three polymerases amplified DNA to a detectable level | – |
| O=c1ccn([C@H]2C[C@H](O)[C@@H](COP(=O)(O)OP(=O)(O)OP(=O)(O)O)O2)c(=O)[nH]1 [dUTP] | – | all tested polymerases were able to generate a detectable PCR product |
